Assay results from patent US7850946B2, “Macrocyclic cyanine and indocyanine bioconjugates provide improved biomedical applications” (Washington University in St. Louis, priority 2003, dated 2010).
Starred links: 1 amine or outer side, 2 acyl side, 3 side chain; linkers in the order of their positions; H or OH if unused. Positions of bridges follow the written chain, without caps; N, C: chain ends. Non-standard residues stand in square brackets, D forms with d. Residues, ends and D or L forms follow the SMILES beside them. X1 = CC1(C)C(/C=C/C=C/C=C/C=C2/N(CCC(=O)[*:2])c3ccc4ccccc4c3C2(C)C)=[N+](CCC(=O)[*:1])c2ccc3ccccc3c21

Columns and labels:
[1] = system: CA20948 tumor-bearing mice; test: Contrast agent-mediated optical imaging / biodistribution in tumor (CA20948) bearing mice; type: in vivo; settings: 0.5 mL of a 1 μM solution via lateral tail vein
From the text: The instrument consists of an excitation source and a charge-coupled device (CCD) camera for signal detection. To image compounds such as compound 18 that absorb and emit radiation in the near infrared region, a nominal 780 nm collimated solid state laser source was used to excite the compounds. The nominal 50 mW of incident power from the laser was reduced to about 20 mW at the output of the fiber optic bundle. A CCD camera (12 bit, 1024×1024 pixel, back illuminated) was equipped with the appropriate interference filter to capture the emitted photons at 830 nm. Biodistribution of the dyes and receptor-specific optical contrast agent in mice were performed by injecting 0.5 mL of a 1 μM solution of the compound via the lateral tail vein of tumor (CA20948) bearing mice. […] In contrast, injection of somatostatin-avid optical probes in CA20948 tumor-bearing mice preferentially accumulates in the tumor.

SSTR2 = biological target: T1, SSTR2 (Rattus norvegicus, UniProt P30680); test: Receptor binding affinity: competition with 111In-DTPA-octreotide in AR42J tumor cell membranes; settings: 37° C., 2 h, radioligand 111In-DTPA-octreotide, read-out: IC50 relative to 111In-DTPA-octreotide
T1 construct: A preparation of cell membranes was made from AR42J cells by brief sonication; endogenous in cells; host or cells: AR42J rat pancreatic carcinoma cells (membrane preparation)
T1 sequence (P30680 whole entry): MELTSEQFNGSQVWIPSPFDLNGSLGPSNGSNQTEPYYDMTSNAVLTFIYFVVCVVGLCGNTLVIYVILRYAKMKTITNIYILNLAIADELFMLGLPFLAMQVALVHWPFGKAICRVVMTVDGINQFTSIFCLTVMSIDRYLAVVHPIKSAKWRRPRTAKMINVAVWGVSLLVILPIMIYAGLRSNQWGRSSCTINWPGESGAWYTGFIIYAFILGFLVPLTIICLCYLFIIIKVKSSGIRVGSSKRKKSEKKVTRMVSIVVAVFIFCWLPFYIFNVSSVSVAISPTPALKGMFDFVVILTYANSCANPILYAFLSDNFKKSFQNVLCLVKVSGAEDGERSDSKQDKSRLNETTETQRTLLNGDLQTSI
Method: The binding affinity of somatostatin analogues was carried out using ^111In-DTPA-octreotide in AR42J tumor cells according to previously reported methods with minor modifications (Lewis, J. S., Lewis, M. R., Srinivasan, A., Schmidt, M. A., Wang, J., and Anderson, C. J. (1999) Comparison of Four ^64Cu-labeled Somatostatin Analogs in vitro and in a Tumor-bearing Rat Model: Evaluation of New Derivatives for PET Imaging and Targeted Radiotherapy. J. Med. Chem. 42, 1.341-1347). The AR42J rat pancreatic carcinoma cell line is known to express SSTR2 both in vitro and in vivo ((Rosewicz, S., Vogt, D., Harth, N., Grund, C., Franke, W. W., Ruppert, S., Schweitzer, E., Riecken, E.-O., and Wiedenman, B. (1992) An Amphicrine Pancreatic Cell Line: AR42J Cells Combine Exocrine and Neuroendocrine Properties. Eur. J. Cell Biol. 59, 80-91; Christophe, J. (1994) Pancreatic Tumoral Cell Line AR42J: An Amphicrine Model. Am. J.
Physiol. (Gastrointest. Liver Physiol.) 266 (29), G963-G971). […] The filters containing membrane-bound radioactivity were removed from the assay plate and counted using a Beckman 8000 automated well-typed counter (Fullerton, Calif.). Specific binding was calculated by subtracting the non-specifically bound radioactivity from that of total binding. The best-fit IC50 values were calculated using PRISM™ (Graphpad, San Diego, Calif.). […]

| SMILES | time to clearance from the blood postinjection [1] [h] | biodistribution: site of accumulation ([1]; optical imaging 780 nm excitation / 830 nm emission) | IC50 (SSTR2) [nM] |
| --- | --- | --- | --- |
| CC1(C)C(/C=C/C=C/C=C/C=C2/N(CCC(=O)O)c3ccc4ccccc4c3C2(C)C)=[N+](CCC(=O)O)c2ccc3ccccc3c21 [Compound 2, Bispropylcarboxymethylindocyanine Dye] | ≤ 1 | accumulates in the liver | – |
| C[C@@H](O)[C@@H]1NC(=O)[C@@H]2CSSC[C@H](NC(=O)[C@@H](Cc3ccccc3)NC(=O)CC[N+]3=C(/C=C/C=C/C=C/C=C4/N(CCC(=O)NCCCC[C@@H](C(N)=O)NC1=O)c1ccc5ccccc5c1C4(C)C)C(C)(C)c1c3ccc3ccccc13)C(=O)N[C@@H](Cc1ccc(O)cc1)C(=O)N[C@H](Cc1c[nH]c3ccccc13)C(=O)N[C@@H](CCCCN)C(=O)N[C@@H]([C@@H](C)O)C(=O)N2 [Compound 18] ([dF]CY[dW]KTCTK-NH2; disulfide 2-7; linker N-9 via X1) | – | – | 8.17 |
